Test results from ChEMBL document CHEMBL1135037 (Bioorg Med Chem Lett, 2002).

Experiments:
[1] = target: T1, Serine-threonine protein phosphatase 2A regulatory subunit (Gallus gallus) (UniProt Q8AWE3); test: Inhibition against PP2A at 100 uM
T1 sequence (whole entry): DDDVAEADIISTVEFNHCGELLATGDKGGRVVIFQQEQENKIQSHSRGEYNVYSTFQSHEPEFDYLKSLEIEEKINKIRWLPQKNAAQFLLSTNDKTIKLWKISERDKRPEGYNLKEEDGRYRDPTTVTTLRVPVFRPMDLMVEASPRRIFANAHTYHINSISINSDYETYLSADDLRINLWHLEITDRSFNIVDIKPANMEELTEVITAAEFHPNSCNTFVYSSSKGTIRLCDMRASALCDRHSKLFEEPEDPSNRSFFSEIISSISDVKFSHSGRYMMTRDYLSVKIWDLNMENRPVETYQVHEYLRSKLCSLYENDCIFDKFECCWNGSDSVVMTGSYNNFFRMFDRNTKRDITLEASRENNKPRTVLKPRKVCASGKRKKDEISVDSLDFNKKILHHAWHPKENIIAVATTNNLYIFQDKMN

[2] = Inhibition against PP1 at 100 uM
[3] = Inhibitory concentration against PP1 was determined
[4] = Selectivity was calculated against protein phosphatase 1
[5] = target: T2, Serine-threonine protein phosphatase 2A regulatory subunit (Gallus gallus, UniProt Q8AWE3); test: Concentration required to inhibit the action of protein phosphatase 2A
T2 sequence (Q8AWE3 whole entry): T1 sequence (whole entry)

[6] = Selectivity was evaluated against Protein phosphatase 1
[7] = organism: Homo sapiens; test: Selectivity against Protein phosphatase 2A

Compound | inhibition [1] | inhibition [2] | IC50 [3] | Selectivity [4] | IC50 [5] | Selectivity [6] | Selectivity [7]
O=C1OC(=O)C2C1[C@@H]1C=C[C@H]2S1 (some centres not stated) | 0% | 0% | – | – | – | – | –
O=C1OC(=O)C2C1[C@@H]1CC[C@H]2O1 (some centres not stated) | 97% | 90% | 2.4 µM | – | – | – | –
COC(=O)C1C(C(=O)OC)[C@H]2C=C[C@@H]1S2 (some centres not stated) | 3% | 3% | – | – | – | – | –
COC(=O)C1C(C(=O)OC)[C@H]2C=C[C@@H]1O2 (some centres not stated) | 6% | 46% | 50 µM | > 40 | > 2000 µM | – | –
C[C@@]12C(=O)OC(=O)[C@]1(C)[C@H]1CC[C@@H]2O1 [CANTHARIDIN] | – | – | 0.16 µM | – | – | – | –
O=C1NC(=O)C2C1[C@@H]1C=C[C@H]2S1 (some centres not stated) | 30% | 87% | 12.5 µM | – | 426 µM | 34 | –
COC[C@@H]([C@H](O)[C@H](O)C(=O)NCC[C@H](C)c1nc(/C=C/C[C@@H]2O[C@]3(C[C@@H](O)[C@@H]2C)O[C@H]([C@H](C[C@H](O)[C@H](C)[C@H](O)[C@H](C)/C=C(C)/C(C)=C/C=C/C(C)=C\C#N)OC)[C@H](OP(=O)(O)O)C3(C)C)co1)N(C)C [CALYCULIN A] | – | – | – | – | 0.002 µM | – | –
C[C@@](O)(/C=C/[C@H]1CC=CC(=O)O1)[C@@H](C[C@@H](O)\C=C/C=C\C=C\CO)OP(=O)(O)O [FOSTRIECIN SODIUM] | – | – | 130 µM | – | 0.0034 µM | – | > 40000
